# Target: T1, lysozyme-COT 15 (Gallus gallus, UniProt P00698)
# T1 construct: purchased
# Assay: In vitro protein labeling of lysozyme-COT 15 with hydroxylamine 13 (in-gel fluorescence, intact MS)
# Assay type: biochemical
# Experimental: To test the bioorthogonality of the hydroamination reaction, in vitro protein labeling experiments were performed. Fluorophore-conjugated hydroxylamine 13 was first assembled from 6-carboxytetramethylrhodamine and hydroxylamine 12, which was in turn synthesized by nucleophilic displacement of iodide 11 with N-methylhydroxylamine hydrochloride (FIG. 4A). […] With both reaction components in hand, cyclooctyne-functionalized lysozyme 15 was treated with hydroxylamine 13 (0-200 μM) in PBS for 2 hours and analyzed by in-gel fluorescence (FIG. 4C). Labeling occurred in a concentration-dependent manner, and labeling was saturated at 100 μM hydroxylamine. […]
# Lysozyme (CAS 12650-88-3, 50 mg/mL in deionized H2O) was diluted into phosphate-buffered saline (PBS, pH 7.4) to a final concentration of 10 mg/mL. […] The concentration of lysozyme was determined by A280 measurement in denaturing buffer (pH 7.0, 6 M guanidinium, 30 mM MOPS) on a UV-vis spectrophotometer. […]
# A solution of lysozyme-COT 15 (5.0 μL, 0.15 mg/mL) was aliquoted into 6 samples. […] In-gel fluorescence was imaged with a Typhoon™ FLA 9500 (GE) at 532 nm with a photomultiplier tube (PMT) setting of 500 V. The experiment was carried out in triplicate (FIG. 8).
# A solution of lysozyme-COT 15 (5.0 μL, 0.15 mg/mL) was aliquoted each into 6 samples. […] Samples were snap frozen under liquid nitrogen until all samples were ready to be loaded on the gel. […]
# T1 sequence (P00698 19-147): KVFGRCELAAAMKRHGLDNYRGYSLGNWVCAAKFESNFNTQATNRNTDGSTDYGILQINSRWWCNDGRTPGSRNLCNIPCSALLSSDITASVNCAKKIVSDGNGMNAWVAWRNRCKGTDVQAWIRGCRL
smiles,measurement,setting,value
"CN(O)CCOCCNC(=O)c1ccc2c(c1)C1(OC2=O)c2ccc(N(C)C)cc2Oc2cc(N(C)C)ccc21 [compound 13, 3′,6′-bis(dimethylamino)-N-(2-(2-(hydroxy(methyl)amino)ethoxy)ethyl)-3-oxo-3H-spiro[isobenzofuran-1,9′-xanthene]-6-carboxamide]",time to in-gel fluorescence signal saturation,"200 μM 13, quenched with N,N-diethylhydroxylamine (20 mM)",≤ 1 h
same,hydroxylamine concentration at which labeling was saturated,"lysozyme-COT 15, 0-200 μM 13, PBS, 2 hours, in-gel fluorescence",100 µM

# Source: US20240165259A1, “BIOORTHOGONAL REACTION SUITABLE FOR CLICK/UNCLICK APPLICATIONS” (DANA-FARBER CANCER INSTITUTE, INC., priority 2021, published 2024)
